Series [1] has as its target T1, 11-beta-hydroxysteroid dehydrogenase 1 (Homo sapiens, UniProt P28845). As to the kind of experiment: Inhibition of 11beta-HSD1 (unknown origin).
For series [2], the target named is T2, PXR (NR1I2) (Rattus norvegicus, UniProt Q9R1A7).
T2 sequence (Q9R1A7 whole entry): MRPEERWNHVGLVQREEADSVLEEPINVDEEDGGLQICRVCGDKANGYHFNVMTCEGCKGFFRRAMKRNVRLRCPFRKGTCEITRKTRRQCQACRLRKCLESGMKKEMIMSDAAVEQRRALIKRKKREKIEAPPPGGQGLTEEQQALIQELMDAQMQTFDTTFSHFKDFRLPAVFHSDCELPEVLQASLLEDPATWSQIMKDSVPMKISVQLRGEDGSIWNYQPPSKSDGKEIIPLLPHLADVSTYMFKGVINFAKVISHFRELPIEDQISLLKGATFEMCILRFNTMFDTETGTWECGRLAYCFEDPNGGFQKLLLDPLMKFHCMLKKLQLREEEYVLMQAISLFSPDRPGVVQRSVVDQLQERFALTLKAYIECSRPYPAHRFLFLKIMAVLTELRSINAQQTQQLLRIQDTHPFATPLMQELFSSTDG
As to the kind of experiment: Activation of rat PXR assessed as induction of PXR activity at 10 uM relative to control. The note with it: read-out: Activity.

The target of series [3] is T3, PXR (NR1I2) (Homo sapiens, UniProt O75469).
T3 sequence (O75469 whole entry): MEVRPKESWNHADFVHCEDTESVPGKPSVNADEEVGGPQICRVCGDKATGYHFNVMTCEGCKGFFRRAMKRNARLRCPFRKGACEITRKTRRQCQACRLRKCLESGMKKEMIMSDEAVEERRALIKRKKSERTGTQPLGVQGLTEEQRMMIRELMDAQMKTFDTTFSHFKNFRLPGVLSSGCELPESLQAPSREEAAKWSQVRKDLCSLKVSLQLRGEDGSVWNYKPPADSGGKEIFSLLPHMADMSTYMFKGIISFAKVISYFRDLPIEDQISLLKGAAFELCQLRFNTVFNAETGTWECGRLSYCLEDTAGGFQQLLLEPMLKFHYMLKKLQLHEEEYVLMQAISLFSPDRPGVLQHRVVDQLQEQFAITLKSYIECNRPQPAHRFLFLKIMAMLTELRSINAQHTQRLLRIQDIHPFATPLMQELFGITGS
As to the kind of experiment: Activation of human PXR assessed as induction of PXR activity at 10 uM relative to control. The note with it: read-out: Activity.

Series [4] addresses T1, 11-beta-hydroxysteroid dehydrogenase 1. The series can be described thus: Inhibition of 11beta-HSD1 in human PBMC cells using 3H-cortisone as substrate assessed as conversion of cortisone to cortisol by ELISA. The series is classed as cell-based. (In general: In an ELISA, binding on a coated surface is turned into a signal by an enzyme label.)
The target of another series is hERG (KCNH2) (Homo sapiens, UniProt Q12809). The series can be described thus: Inhibition of human ERG expressed in CHO cells at 30 uM at -80 mV holding potential by automated patch clamp assay relative to control. The note with it: CHO cells expressing human ERG. The series is classed as toxicity, cell-based.
hERG (KCNH2), sequence (Q12809 whole entry): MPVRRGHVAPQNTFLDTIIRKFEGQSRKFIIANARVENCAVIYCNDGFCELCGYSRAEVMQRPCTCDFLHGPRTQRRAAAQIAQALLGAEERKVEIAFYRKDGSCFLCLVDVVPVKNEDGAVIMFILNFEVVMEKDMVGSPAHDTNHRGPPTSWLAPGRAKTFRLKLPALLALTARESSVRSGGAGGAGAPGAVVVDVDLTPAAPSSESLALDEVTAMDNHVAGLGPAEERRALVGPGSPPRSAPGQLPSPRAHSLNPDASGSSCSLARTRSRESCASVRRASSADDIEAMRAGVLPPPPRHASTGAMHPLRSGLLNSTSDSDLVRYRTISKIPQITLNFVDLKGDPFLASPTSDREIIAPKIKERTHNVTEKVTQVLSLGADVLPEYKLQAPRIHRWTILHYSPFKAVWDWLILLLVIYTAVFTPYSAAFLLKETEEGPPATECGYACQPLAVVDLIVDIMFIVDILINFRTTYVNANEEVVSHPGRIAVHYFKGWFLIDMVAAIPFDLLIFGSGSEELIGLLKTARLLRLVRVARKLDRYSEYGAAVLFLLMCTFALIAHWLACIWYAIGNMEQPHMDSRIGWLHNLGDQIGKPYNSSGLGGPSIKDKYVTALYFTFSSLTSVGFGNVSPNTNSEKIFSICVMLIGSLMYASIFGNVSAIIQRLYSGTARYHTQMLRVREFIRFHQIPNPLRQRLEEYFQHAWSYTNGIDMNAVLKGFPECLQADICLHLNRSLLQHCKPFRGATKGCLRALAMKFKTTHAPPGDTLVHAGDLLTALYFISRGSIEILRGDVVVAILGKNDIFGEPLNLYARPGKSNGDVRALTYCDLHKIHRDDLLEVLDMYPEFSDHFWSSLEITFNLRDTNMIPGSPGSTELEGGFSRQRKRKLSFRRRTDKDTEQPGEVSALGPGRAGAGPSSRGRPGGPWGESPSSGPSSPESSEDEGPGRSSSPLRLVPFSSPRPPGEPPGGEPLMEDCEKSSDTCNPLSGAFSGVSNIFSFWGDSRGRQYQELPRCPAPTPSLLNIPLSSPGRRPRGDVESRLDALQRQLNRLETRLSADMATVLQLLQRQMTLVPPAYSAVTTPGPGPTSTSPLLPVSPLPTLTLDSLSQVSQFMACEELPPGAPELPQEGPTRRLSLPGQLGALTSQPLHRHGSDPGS
Series [5] has as its target T1, 11-beta-hydroxysteroid dehydrogenase 1. The series can be described thus: Inhibition of 11beta-HSD1 (unknown origin) using 3H-cortisone as substrate by scintillation proximity assay. A general note: SPA uses beads or plates that emit light when radiolabelled molecules are held near them.

pIC50: −log10 of the molar value.

T1 sequence (P28845 whole entry): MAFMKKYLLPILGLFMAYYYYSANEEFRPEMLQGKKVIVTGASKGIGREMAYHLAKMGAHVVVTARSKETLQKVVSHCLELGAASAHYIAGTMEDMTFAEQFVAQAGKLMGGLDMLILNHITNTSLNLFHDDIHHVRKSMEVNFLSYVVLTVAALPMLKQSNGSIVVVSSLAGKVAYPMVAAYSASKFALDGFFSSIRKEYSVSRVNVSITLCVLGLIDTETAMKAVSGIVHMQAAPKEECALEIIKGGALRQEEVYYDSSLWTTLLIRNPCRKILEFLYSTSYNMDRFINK

Usually pIC50 stands for −log10 of the IC50, conventionally taken in molar units. Consider `O=C(NC12CC3CC(CC(C3)C1)C2)[C@H]1CCCN1Cc1ccccn1`, for which, in series [1], the pIC50 is 7.92.
As a reminder, the inhibition is the relative decrease from the control value, in per cent. Take `CC(C1CCCCC1)N1C[C@H](O)C[C@]12CCN(C1CCCCC1)C2=O` (some centres not stated): the activity at 10 µM at PXR (NR1I2) [2] is 58%; on PXR (NR1I2) [3] it was 10%. Moreover, the results for the negative-log IC50 (pIC50) in series [4] and in series [5] were 8.72 and 8.30, respectively. Also, the inhibition at 30 µM at hERG (KCNH2) was determined as 14%.
As to `O=C1N(C2CCCCC2)CC[C@]12C[C@H](F)CN2Cc1ccc(Cl)cc1`, the activity at 10 µM came out at 123% on PXR (NR1I2) [2] and 48% on PXR (NR1I2) [3]. The pIC50 is 8.29 in series [4] and 8.70 in series [5]. Moreover, the inhibition at 30 µM against hERG (KCNH2) was 52%.
For `CC(C1CCC1)N1C[C@H](O)C[C@]12CCN(C1CCCCC1)C2=O` (some centres not stated), the activity at 10 µM came to 9% on PXR (NR1I2) [2] and 4.5% at PXR (NR1I2) [3]. The pIC50 in series [4] was 8.41; in series [5], 8.15. In addition, at hERG (KCNH2), the inhibition at 30 µM is -15%.
In series [1], `CC(C)CN1CCC[C@@H]1C(=O)NC1CCCCC1` gave a negative logarithm of the IC50 (pIC50) of 8.05.
As for `CCN1C[C@@H](O)C[C@]12CCN(C1CCCCC1)C2=O`, the figures for the activity at 10 µM on PXR (NR1I2) [2] and on PXR (NR1I2) [3] were 28% and 56%, respectively. Moreover, the results for the negative logarithm of the IC50 (pIC50) in series [4] and in series [5] were 7.68 and 7.82, respectively. On hERG (KCNH2), the inhibition at 30 µM was 11%.

The values are drawn from ChEMBL document CHEMBL5104129, “Discovery of a novel 2-spiroproline steroid mimetic scaffold for the potent inhibition of 11β-HSD1” (Bioorg Med Chem Lett, 2022).
